In the oligonucleotide strings, read from the 5' end, every base follows the letter of its sugar. An asterisk marks phosphorothioate; unmarked linkages are phosphodiester. Other units and linkages are bracketed, terminal groups are in braces. A string of capitals states the bases alone. d = 2'-deoxy (DNA); m = 2'-O-methyl
Biological target: T1, human TLR7 (Homo sapiens, UniProt Q9NYK1)
T1 construct: HA; host or cells: 293XL-hTLR7-HA (HEK293)
T1 sequence (Q9NYK1 27-1049): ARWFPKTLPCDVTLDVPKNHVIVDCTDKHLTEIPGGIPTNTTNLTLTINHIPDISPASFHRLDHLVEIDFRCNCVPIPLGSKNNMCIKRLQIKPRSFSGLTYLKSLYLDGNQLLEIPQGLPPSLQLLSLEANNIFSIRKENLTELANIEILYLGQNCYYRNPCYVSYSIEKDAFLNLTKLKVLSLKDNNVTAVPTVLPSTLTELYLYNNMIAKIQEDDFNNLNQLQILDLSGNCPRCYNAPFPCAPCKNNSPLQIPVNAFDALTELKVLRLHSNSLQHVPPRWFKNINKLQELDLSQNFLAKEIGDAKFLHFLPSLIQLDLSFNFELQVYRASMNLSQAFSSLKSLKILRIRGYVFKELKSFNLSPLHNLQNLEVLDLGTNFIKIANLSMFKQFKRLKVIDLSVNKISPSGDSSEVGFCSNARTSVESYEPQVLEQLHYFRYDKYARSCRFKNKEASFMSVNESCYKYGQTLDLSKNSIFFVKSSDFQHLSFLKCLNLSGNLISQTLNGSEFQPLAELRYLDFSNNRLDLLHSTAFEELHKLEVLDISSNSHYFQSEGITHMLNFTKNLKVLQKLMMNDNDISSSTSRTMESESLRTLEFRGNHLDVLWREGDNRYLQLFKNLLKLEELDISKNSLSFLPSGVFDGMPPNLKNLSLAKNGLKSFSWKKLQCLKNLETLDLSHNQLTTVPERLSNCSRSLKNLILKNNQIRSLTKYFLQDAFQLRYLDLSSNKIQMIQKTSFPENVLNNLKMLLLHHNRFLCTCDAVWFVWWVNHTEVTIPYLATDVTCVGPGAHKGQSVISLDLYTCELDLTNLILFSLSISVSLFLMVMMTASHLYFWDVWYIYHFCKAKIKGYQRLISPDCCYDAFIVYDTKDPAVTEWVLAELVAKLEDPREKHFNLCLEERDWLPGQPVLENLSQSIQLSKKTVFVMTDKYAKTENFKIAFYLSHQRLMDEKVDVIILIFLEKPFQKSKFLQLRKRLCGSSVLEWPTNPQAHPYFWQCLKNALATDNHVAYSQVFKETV
Experiment: HEK-TLR7 NF-κB-luciferase reporter, R848 stimulation
Assay type: cell-based
Conditions: for TLR7 100 nM (averaged NF-κB-Luciferase level relative to R848 condition): ASO 100 nM; for TLR7 100 nM (averaged NF-κB-Luciferase level relative to R848 condition) / TLR7 500 nM (averaged NF-κB-Luciferase level relative to R848 condition): relative to R848 only, given as fraction; for TLR7 500 nM (averaged NF-κB-Luciferase level relative to R848 condition): ASO 500 nM; for TLR7-100 nM: averaged NF-κB-Luciferase relative to R848: HEK-TLR7, 100 nM ASO, percentage of R848 without ASO (Alharbi et al., 2020)

Row | Substance | TLR7 100 nM (averaged NF-κB-Luciferase level relative to R848 condition) | TLR7 500 nM (averaged NF-κB-Luciferase level relative to R848 condition) | TLR7-100 nM: averaged NF-κB-Luciferase relative to R848
1 | CCTTGCACGTGGCTTC (antisense; LNA-modified, pattern not given here) [EGFR-1013 LNA V1] | 0.617 | 0.281 | –
2 | CACTTCGTGGGGTCCT (antisense; LNA-modified, pattern not given here) [HPRT LNA-664 V1] | 0.868 | 0.240 | –
3 | mA*mA*mA*mG*mC*A*G*T*C*T*C*C*A*T*G*mU*mC*mC*mC*mA (mA*mA*mA*mG*mC*dA*dG*dT*dC*dT*dC*dC*dA*dT*dG*mU*mC*mC*mC*mA; antisense) [[CDKN2B-AS1]2237] | – | – | 27.16%
4 | mA*mG*mC*mA*mG*T*C*T*C*C*A*T*G*T*C*mC*mC*mA*mG*mG (AGCAGTCTCCATGTCCCAGG; antisense; sugars from the 5' end m5 d10 m5, all phosphorothioate, methylation of C not given here) [[CDKN2B-AS1]2235] | – | – | 25.50%
5 | ATCTGGCAGCCCATCA (antisense; LNA-modified, pattern not given here) [CTNN2B-2516 LNA V1] | 0.663 | 0.279 | –
6 | CCAACACTTCGTGGGG (antisense; LNA-modified, pattern not given here) [HPRT LNA-668 V1] | 0.808 | 0.446 | –
7 | AACACTTCGTGGGGTC (antisense; LNA-modified, pattern not given here) [HPRT LNA-666 V1] | 0.899 | 0.445 | –
8 | CTTCGTGGGGTCCTTT (antisense; LNA-modified, pattern not given here) [HPRT LNA-662 V1] | 0.685 | 0.233 | –
9 | AACCCCTTTCACCATC (antisense; LNA-modified, pattern not given here) [MB21D1-689 LNA KL] | 0.771 | 0.426 | –
10 | CGTATTATAGCCGATT (antisense; LNA-modified, pattern not given here) [NC1 LNA PS 3-10-3] | 0.754 | 0.226 | –
11 | GGAGGTCTTGGCTTCG (antisense; LNA-modified, pattern not given here) [MB21D1-526 LNA V1] | 0.503 | 0.119 | –
12 | TGTCCTTGCACGTGGC (antisense; LNA-modified, pattern not given here) [EGFR-1016 LNA V1] | 0.502 | 0.199 | –
13 | ACCACGTCTGCTCTAA (antisense; LNA-modified, pattern not given here) [CAMSAP1-1635 LNA KL] | 1.078 | 0.532 | –
14 | mG*mU*mC*mU*mC*C*A*T*G*T*C*C*C*A*G*mG*mC*mC*mU*mC (mG*mU*mC*mU*mC*dC*dA*dT*dG*dT*dC*dC*dC*dA*dG*mG*mC*mC*mU*mC) [[CDKN2B;AS1]2231] | – | – | 23.75%
15 | CCCACTTGGCAGACCA (antisense; LNA-modified, pattern not given here) [CTNN2B-1576 LNA V1] | 1.024 | 0.639 | –
16 | GTGATGGCCTCCCATC (antisense; LNA-modified, pattern not given here) [HPRT LNA-333 V1] | 0.665 | 0.139 | –
17 | GAAAGGTTATGCAAGG (antisense; LNA-modified, pattern not given here) [CTNN2B-916 LNA KL] | 0.166 | 0.101 | –
18 | TGGTGGCCACCCATCT (antisense; LNA-modified, pattern not given here) [CTNN2B-2479 LNA V1] | 0.957 | 0.393 | –
19 | GTGATCTTGACATGCT (antisense; LNA-modified, pattern not given here) [EGFR-2790 LNA KL] | 0.438 | 0.060 | –

Source: patent US20240384268A1, “Oligonucleotides” (Hudson Institute of Medical Research, priority 2021, published 2024)
